# Reference: patent US8030354B2, “Substituted biphenyl GPR40 modulators” (Amgen Inc., priority 2007, dated 2011)
# What was measured:
# [1] = biological target: T1, GPR40 (Homo sapiens, UniProt O14842); assay: Inositol phosphate accumulation in response to compounds; format: cell-based; set-up: expressed in transfected cells; details: FIG. 3; as a function of concentration; compared with Comparative Compound 1
# Description: FIG. 3 is a graph showing inositol phosphate accumulation in response to various compounds as a function of concentration.
# [2] = biological target: T1, GPR40; assay: Displacement of 3H-labeled Comparative Compound 1 by unlabeled compounds; format: binding; set-up: expressed in transfected cells; host or cells: membranes of A9 cells expressing GPR40; details: FIG. 1
# [3] = biological target: T1, GPR40; assay: Competition binding assay on A9 membranes expressing GPR40 with [3H] labeled Comparative Compound 1; set-up: expressed in transfected cells; host or cells: membranes of A9 cells expressing GPR40; details: 5 nM radioligand, 4 hours, room temperature
# Protocol: Competition binding assays were performed on A9 membranes expressing GPR40.
# [4] = biological target: T1, GPR40; assay: Inositol phosphate accumulation assay (A9_GPR40 cells); format: cell-based; set-up: expressed in transfected cells; host or cells: CHO cells stably transfected with GPR40 and aequorin; details: for EC50: inositol phosphate assay, A9_GPR40 cells, 1 hour, read-out: IP3 EC50
# Method in brief: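 A9 cells stably expressing GPR40 were labelled 16 h with 1 μCi/mL ^3H-inositol in inositol-free DMEM with dialysed FBS. Compounds in HBSS/10 mM LiCl with HSA were applied for 1 h at 37° C, then quenched with 20 mM formic acid. Accumulated [^3H] inositol phosphates were counted by SPA.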
# [5] = biological target: T1, GPR40; assay: Cell-based aequorin assay (CHO cells stably expressing GPR40 and aequorin); set-up: expressed in transfected cells; host or cells: CHO cells stably transfected with GPR40 and aequorin; details: for EC50: activation of human GPR40, CHO cells, 0.01% HSA
# Method in brief: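 CHO cells stably co-expressing GPR40 and aequorin, loaded with coelenterazine (1 ug/mL, 2 h, room temperature) in H/HBSS with 20 mM Hepes and 0.01% fatty acid-free HSA. Serially diluted compounds added; luminescence recorded over 20 s. EC50 from dose-response of maximum relative light units.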
# [6] = biological target: T1, GPR40; assay: Aequorin luminescence in response to compounds; format: cell-based; set-up: expressed in transfected cells; details: FIG. 2; as a function of concentration; compared with fatty acid ligands
# Description: FIG. 2 is a graph showing Aequorin luminescence in response to various compounds as a function of concentration.
# [7] = test system: fetal rat intestinal cells isolated from E19 rat embryos; assay: GLP-1 secretion into culture medium from fetal rat intestinal cells; format: cell-based; details: FIG. 5-7; cultured cells treated with serial dilutions of compound
# Protocol: (§1) FIG. 5 is a graph showing the concentration of GLP-1 secreted into culture medium as a function of the amount of Example compounds 14 and 69.8. The GLP-1 was secreted from fetal rat intestinal cells isolated from E19 rat embryos. The cultured cells were treated with serial dilutions of the indicated compounds, and GLP-1 secreted into the culture medium was determined.
# as §1, with “6” for “5”, “compound 66.6.” for “compounds 14 and 69.8.”, “compound,” for “compounds,”
# as §1, with “7” for “5”, “14, 66.17, 77.3,” for “14”, “83.1.” for “69.8.”
# T1 sequence (O14842 whole entry): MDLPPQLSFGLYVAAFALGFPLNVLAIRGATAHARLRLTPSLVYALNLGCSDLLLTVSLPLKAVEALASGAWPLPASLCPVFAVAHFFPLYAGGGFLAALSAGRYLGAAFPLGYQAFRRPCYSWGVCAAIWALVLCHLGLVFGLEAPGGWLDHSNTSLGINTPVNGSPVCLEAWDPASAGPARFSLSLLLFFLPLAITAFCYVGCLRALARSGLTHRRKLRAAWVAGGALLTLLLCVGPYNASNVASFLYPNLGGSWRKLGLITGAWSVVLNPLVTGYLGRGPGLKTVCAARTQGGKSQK
Compound,EC50 [4] [nM],EC50 [5] [nM],other results
"CCCCOc1cc(COc2cccc([C@@H](CC(=O)O)C3CC3)c2)ccc1-c1cc(OC)ccc1F (single isomer, unassigned) [Example 9, (3S)-3-(3-(((2-(Butyloxy)-2′-fluoro-5′-(methyloxy)-1,1′-biphenyl-4-yl)methyl)oxy)phenyl)-3-cyclopropylpropanoic acid or (3R)-3-(3-(((2-(butyloxy)-2′-fluoro-5′-(methyloxy)-1,1′-biphenyl-4-yl)methyl)oxy)phenyl)-3-cyclopropylpropanoic acid]",100 to 1000,100 to 1000,"inositol phosphate accumulation [1]: greater than Comparative Compound 1; displacement of 3H-labeled Comparative Compound 1 / total binding of 3H-labeled Comparative Compound 1 [2]: enhanced the total binding; displacement of bound [3H] labeled Comparative Compound 1 [3]: did not displace; effect on binding of the radioligand (Comparative Compound 1) to the receptor [3]: enhanced the binding of the radioligand; agonist type in inositol phosphate accumulation assay ([4]; [3H] inositol accumulation after 1 hour, FIG. 3): potent full agonists"
"COc1ccc(F)c(-c2ccc(COc3cccc([C@@H](CC(=O)O)C4CC4)c3)cc2C2CCCC2(C)C)c1 (single isomer, unassigned) [Example 66.4, (3S)-3-Cyclopropyl-3-(3-(((2-(2,2-dimethylcyclopentyl)-2′-fluoro-5′-(methyloxy)-1,1′-biphenyl-4-yl)methyl)oxy)phenyl)propanoic acid or (3R)-3-cyclopropyl-3-(3-(((2-(2,2-dimethylcyclopentyl)-2′-fluoro-5′-(methyloxy)-1,1′-biphenyl-4-yl)methyl)oxy)phenyl)propanoic acid]",< 10,100 to 1000,"Aequorin luminescence [6]: equivalent to naturally occurring fatty acid ligands; agonist type in aequorin assay ([5]; compared with α-linolenic acid and docosahexaenoic acid, FIG. 2): potent full agonists"
"COc1ccc(F)c(-c2ccc(COc3cccc(C(CC(=O)O)C4CC4)c3)cc2C2CCCC2(C)C)c1 (single isomer, unassigned) [Example 66.6]",< 10,10 to 100,concentration of GLP-1 secreted into culture medium [7]: significantly stimulated GLP-1 secretion
"COc1ccc(F)c(-c2ccc(COc3cccc([C@@H](CC(=O)O)C4CC4)c3)cc2CC(C)(C)C)c1 (single isomer, unassigned) [Example 66.17, (3S)-3-Cyclopropyl-3-(3-(((2-(2,2-dimethylpropyl)-2′-fluoro-5′-(methyloxy)-1,1′-biphenyl-4-yl)methyl)oxy)phenyl)propanoic acid or (3R)-3-cyclopropyl-3-(3-(((2-(2,2-dimethylpropyl)-2′-fluoro-5′-(methyloxy)-1,1′-biphenyl-4-yl)methyl)oxy)phenyl)propanoic acid]",< 10,10 to 100,concentration of GLP-1 secreted into culture medium [7]: significantly stimulated GLP-1 secretion
"COc1ccc(F)c(-c2ccc(COc3cccc([C@@H](CC(=O)O)CC4CC4)c3)cc2[C@H]2CCCC2(C)C)c1 (single isomer, unassigned) [Example 69.8]",< 10,10 to 100,concentration of GLP-1 secreted into culture medium [7]: significantly stimulated GLP-1 secretion
"CCC(CC(=O)O)c1cccc(OCc2ccc(-c3cc(OC)ccc3F)c(C3CCCC3(C)C)c2)c1F (single isomer, unassigned) [Example 77.3]",< 10,100 to 1000,concentration of GLP-1 secreted into culture medium [7]: significantly stimulated GLP-1 secretion
"COc1ccc(F)c(-c2ccc(COc3cccc(C(CC(=O)O)C4CC4)c3F)cc2C2CCCC2(C)C)c1 (single isomer, unassigned) [Example 83.1]",< 10,10 to 100,concentration of GLP-1 secreted into culture medium [7]: significantly stimulated GLP-1 secretion
"COc1ccc(F)c(-c2ccc(COc3cccc(C(C)(CC(=O)O)C4CC4)c3)cc2[C@H]2CCCC2(C)C)c1 (single isomer, unassigned) [Example 104, 3-Cyclopropyl-3-(3-(((2-((1S)-2,2-dimethylcyclopentyl)-2′-fluoro-5′-(methyloxy)-1,1′-biphenyl-4-yl)methyl)oxy)phenyl)butanoic acid or 3-cyclopropyl-3-(3-(((2-((1R)-2,2-dimethylcyclopentyl)-2′-fluoro-5′-(methyloxy)-1,1′-biphenyl-4-yl)methyl)oxy)phenyl)butanoic acid]",10 to 100,100 to 1000,–
"COc1ccc(F)c(-c2ccc(COc3cccc(C4(CC(=O)O)CCCCC4)c3)cc2C2CCCC2(C)C)c1 (single isomer, unassigned) [Example 105.1, (1-{3-[2-((S)-2,2-Dimethyl-cyclopentyl)-2′-fluoro-5′-methoxy-biphenyl-4-ylmethoxy]-phenyl}-cyclohexyl)-acetic acid or (1-{3-[2-((R)-2,2-dimethyl-cyclopentyl)-2′-fluoro-5′-methoxy-biphenyl-4-ylmethoxy]-phenyl}-cyclohexyl)-acetic acid]",10 to 100,100 to 1000,–
"COc1ccc(F)c(-c2ccc(COc3cccc(CCC(=O)O)c3)cc2C(C)(C)C)c1 [Example 34, 3-(3-(((2-(1,1-Dimethylethyl)-2′-fluoro-5′-(methyloxy)-1,1′-biphenyl-4-yl)methyl)oxy)phenyl)propanoic acid]",100 to 1000,100 to 1000,–
"COc1cccc(-c2ccc(COc3cccc(CCC(=O)O)c3)cc2OC(F)(F)F)c1 [Example 37, 3-[3-(3′-Methoxy-2-trifluoromethoxy-biphenyl-4-ylmethoxy)-phenyl]-propionic acid]",> 1000,100 to 1000,–
"COc1ccc(F)c(-c2ccc(COc3cccc(CCC(=O)O)c3)cc2OC(F)(F)F)c1 [Example 38, 3-[3-(2′-Fluoro-5′-methoxy-2-trifluoromethoxy-biphenyl-4-ylmethoxy)-phenyl]-propionic acid]",1000 to 10000,100 to 1000,–
"COc1ccc(F)c(-c2ccc(COc3cccc(CCC(=O)O)c3)cc2C2=CCCC2)c1 [Example 39, 3-[3-(2-Cyclopent-1-enyl-2′-fluoro-5′-methoxy-biphenyl-4-ylmethoxy)-phenyl]-propionic acid]",100 to 1000,1000 to 10000,–
COc1cccc(-c2ccc(COc3cccc(C(CC(=O)O)C4CC4)c3)cc2C2CCCC2(C)C)c1 (stereo not drawn) [Example 66.8],< 10,10 to 100,–
"COc1ccc(F)c(-c2ccc(COc3cc(CCC(=O)O)ccn3)cc2C(C)(C)C)c1 [Example 72, 3-(2-(((2-(1,1-Dimethylethyl)-2′-fluoro-5′-(methyloxy)-1,1′-biphenyl-4-yl)methyl)oxy)-4-pyridinyl)propanoic acid]",1000 to 10000,100 to 1000,–
"COc1ccc(F)c(-c2ccc(COc3cccc(C(C)(C)CC(=O)O)c3)cc2C(C)(C)C)c1 [Example 85.1, 3-[3-(2-tert-Butyl-2′-fluoro-5′-methoxy-biphenyl-4-ylmethoxy)-phenyl]-3-methyl-butyric acid]",100 to 1000,100 to 1000,–
"COc1ccc(F)c(-c2ccc(COc3cccc(C(C)(C)CC(=O)O)c3)cc2C2=CCCC2(C)C)c1 [Example 85.2, 3-{3-[2-(5,5-Dimethyl-cyclopent-1-enyl)-2′-fluoro-5′-methoxy-biphenyl-4-ylmethoxy]-phenyl}-3-methyl-butyric acid]",10 to 100,100 to 1000,–
"COc1ccc(F)c(-c2ccc(COc3cc(CCC(=O)O)ccn3)cc2C2=CCCC2(C)C)c1 [Example 95, 3-(2-(((2-(5,5-Dimethyl-1-cyclopenten-1-yl)-2′-fluoro-5′-(methyloxy)-1,1′-biphenyl-4-yl)methyl)oxy)-4-pyridinyl)propanoic acid]",100 to 1000,100 to 1000,–
